US11254640B2, “N-substituted indoles and other heterocycles for treating brain disorders” (The Regents of the University of California, priority 2019, dated 2022)
Read-outs that look alike come from different tables or passages of the source.

Key:
Format in all cases: cell-based
[1] = system: 5HT2A sensor; test: 5HT2A sensor assay, antagonist mode (sLight1.3s HEK293T stable line); settings: relative to 5-HT at 100 nM; for 5HT2A Antagonist mean @ 100 nM (%): 100 nM compound; for 5HT2A Antagonist mean @ 10 μM (%): 10 μM compound; for 5HT2A Antagonist mean @ 100 μM (%): 100 μM compound
Protocol: In some embodiments, the 5HT2A sensor assay is in an antagonist mode.
(§1) 5HT2A Sensor Assays. HEK293T (ATCC) 5HT2A sensor stable line (sLight1.3s) was generated via lentiviral transduction of HIV-EF1α-sLight1.3 and propagated from a single colony. Lentivirus was produced using 2nd generation lentiviral plasmids pHIV-EF1α-sLight1.3, pHCMV-G, and pCMV-deltaR8.2.
(§2) For the screening of the 41 compounds, sLight1.3s cells were plated in 96-well plates at a density of 40000 24-hours prior to imaging. On the day of imaging, compounds solubilized in DMSO were diluted from the 100 mM stock solution to working concentrations of 1 mM, 100 μM and 1 μM with a DMSO concentration of 1%. Immediately prior to imaging, cells growing in DMEM (Gibco) were washed 2× with HBSS (Gibco) and in agonist mode 180 μL of HBSS or in antagonist mode 160 μL of HBSS was added to each well after the final wash. For agonist mode, images were taken before and after the addition of the 20 μL compound working solution into the wells containing 180 μL HBSS. This produced final compound concentrations of 100 μM, 10 μM and 100 nM with a DMSO concentration of 0.1%. For antagonist mode, images were taken before and after addition of 20 μL of 900 nM 5-HT and again after 20 μL of the compound working solutions to produce final concentrations of 100 nM for 5HT and 100 μM, 10 μM and 100 nM for the compounds with a DMSO concentration of 0.1%. Each compound was tested in triplicates (3 wells) for each concentration (100 μM, 10 μM and 100 nM). Additionally, within each plate, 100 nM 5HT and 0.1% DMSO controls were also imaged.
(§3) Imaging was performed using the Leica DMi8 inverted microscope with a 40× objective using the FITC preset with an excitation of 460 nm and emission of 512-542 nm. For each well, the cellular membrane where the 5HT2A sensor is targeted was autofocused using the adaptive focus controls and 5 images from different regions within the well were taken with each image processed from a 2×2 binning.
(§4) For data processing, the membranes from each image was segmented and analyzed using a custom algorithm written in MATLAB producing a single raw fluorescence intensity value. For each well the 5 raw fluorescence intensity values generated from the 5 images were averaged and the change in fluorescence intensity (dFF) was calculated as: dFF=(Fsat−Fapo)/Fapo
(§5) For both agonist and antagonist modes, the fluorescence intensity values before compound addition in HBSS only were used as the Fapo values while the fluorescence intensity values after compound addition were used as the Fsat values.
(§6) For agonist mode, data are as percent activation relative to 5HT, where 0 is the average of the DMSO wells and 100 is the average of the 100 uM 5HT wells. For antagonist mode, the inactivation score was calculated as: Inactivation score=(dFFF(Compound+5HT)−dFF(5HT))/dFF(5HT)

[2] = target: T1, 5HT2A (Homo sapiens, UniProt P28223); test: Calcium flux assay (Calcium secondary messenger pathway); settings: agonist mode
T1 construct: expressed in transfected cells
From the text: Calcium Flux Assay. Calcium Secondary Messenger Pathway. The Calcium No Wash^PLUS assay monitors the activation of a GPCR (e.g., 5HT2A) via Gq secondary messenger signaling in a live cell, non-imaging assay format. Calcium mobilization in PathHunter® cell lines or other cell lines stably expressing Gq-coupled GPCRs (e.g., 5HT2A) is monitored using a calcium-sensitive dye that is loaded into cells. GPCR (e.g., 5HT2A) activation by a compound results in the release of calcium from intracellular stores and an increase in dye fluorescence that is measured in real-time. In some embodiments, the ability of a compound of the present invention to modulate 5-HT2A function is determined using a calcium flux assay. In some embodiments, a compound of the present invention activates a calcium flux assay.
Calcium Secondary Messenger Pathway. Cell lines were expanded from freezer stocks according to standard procedures. Cells were seeded in a total volume of 20 μL into black-walled, clear-bottom, Poly-D-lysine coated 384-well microplates and incubated at 37° C. for the appropriate time prior to testing. Assays were performed in 1× Dye Loading Buffer consisting of 1× Dye, 1× Additive A and 2.5 mM Probenecid in HBSS/20 mM Hepes. Probenicid was prepared fresh. Cells were loaded with dye prior to testing. Media was aspirated from cells and replaced with 20 μL Dye Loading Buffer. Cells were incubated for 30-60 minutes at 37° C.
For agonist determination, cells were incubated with sample to induce response. After dye loading, cells were removed from the incubator and 10 μL HBSS/20 mM Hepes was added. 3× vehicle was included in the buffer when performing agonist dose curves to define the EC80 for subsequent antagonist assays. Cells were incubated for 30 minutes at room temperature in the dark to equilibrate plate temperature. Intermediate dilution of sample stocks was performed to generate 4× sample in assay buffer. Compound agonist activity was measured on a FLIPR Tetra (MDS). Calcium mobilization was monitored for 2 minutes and 10 μL 4× sample in HBSS/20 mM Hepes was added to the cells 5 seconds into the assay.
Compound activity was analyzed using CBIS data analysis suite (ChemInnovation, CA). For agonist mode assays, percentage activity is calculated using the following formula: % Activity=100%×(mean RFU of test sample−mean RFU of vehicle control)/(mean MAX RFU control ligand−mean RFU of vehicle control).

[3] = system: 5HT2A sensor; test: 5HT2A sensor assay, agonist mode (sLight1.3s HEK293T stable line); settings: percent relative to 5-HT at 100 uM; for 5HT2A Agonist mean @ 100 nM (%): 100 nM compound; for 5HT2A Agonist mean @ 10 μM (%): 10 μM compound; for 5HT2A Agonist mean @ 100 μM (%): 100 μM compound
Protocol: In some embodiments, hallucinogenic potential of a compound of the present invention is determined in vitro. In some embodiments, hallucinogenic potential of a compound of the present invention is determined using a 5HT2A sensor assay. In some embodiments, the 5HT2A sensor assay is in an agonist mode or an antagonist mode. In some embodiments, the 5HT2A sensor assay is in an agonist mode.
as §1, §2, §3, §4, §5, §6

[4] = system: rat cortical neurons; test: Neurite outgrowth assay; settings: Cortical neurone, 1 hour treatment at DIV 4, analysed DIV 7, fold vs DMSO control
From the text: Neurite outgrowth assay. Changes in the pattern of neurite outgrowth have been implicated in neurodegenerative disorders as well as traumatic injuries. The discovery of new compounds that can positively affect neuritogenesis are important for developing new therapeutics for neurological diseases. Measurement of neurite outgrowth of rat cortical neurons using an automated image-based assay was used to determine the neuroplastic effects of the compounds of the present invention. In some embodiments, a compound of the present invention increases the pattern of neurite outgrowth. In some embodiments, a compound of the present invention increases neurite average length compared to a control. In some embodiments, a compound of the present invention increases neurite branch points compared to a control. In some embodiments, a compound of the present invention increases neurite average length and neurite branch points compared to a control.
Neurite Outgrowth Assay. Rat cortical neurons (20,000 cells/well) were freshly isolated from embryonic day 18 rats and cultured in Neurobasal Medium (+B27). The cultured cells were plated in 96 well-plates (avoiding external wells). At DIV 4, the neurons were treated with compound or control (10 μM) for 1 hour followed by complete washout of the compound. At DIV 7, the neurons were analyzed. The experiments were performed in triplicate. Neurite outgrowth was measured analyzing the following parameters: Number of Cell Bodies, total neurite length (pixels), Root Count, Segments, Extremities Count and node points. Changes in the pattern of neurite outgrowth of the neurons were analyzed by immunocytochemistry against β-III-tubulin. Pictures were acquired by the CellInsight CX7 from Thermo Fisher and analyzed using its software. Results generated in the equipment were maximum neurite length, extremity count, root count, dendrite branch points, and total neurite length. The results were compared to DMSO control, representing the fold-change in neuronal outgrowth.

[5] = read-out: Neurite Average Length @ 10 μM
[6] = read-out: Neurite Branch Points: @ 10 μM

T1 sequence (P28223 whole entry): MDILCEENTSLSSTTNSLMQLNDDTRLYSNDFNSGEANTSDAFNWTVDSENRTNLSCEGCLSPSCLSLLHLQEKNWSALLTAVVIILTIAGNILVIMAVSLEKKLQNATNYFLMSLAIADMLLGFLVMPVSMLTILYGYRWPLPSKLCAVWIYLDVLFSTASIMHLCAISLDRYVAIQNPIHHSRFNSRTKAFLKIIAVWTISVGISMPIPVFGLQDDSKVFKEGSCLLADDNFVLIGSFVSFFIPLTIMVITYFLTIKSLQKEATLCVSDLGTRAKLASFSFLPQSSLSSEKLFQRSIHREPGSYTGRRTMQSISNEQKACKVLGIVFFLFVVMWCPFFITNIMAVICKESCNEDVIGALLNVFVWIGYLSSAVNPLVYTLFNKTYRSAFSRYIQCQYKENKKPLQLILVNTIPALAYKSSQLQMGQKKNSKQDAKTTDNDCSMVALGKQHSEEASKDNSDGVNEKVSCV

| Compound | 5HT2A Antagonist mean @ 100 nM (%) [1] | 5HT2A Antagonist mean @ 10 μM (%) [1] | 5HT2A Antagonist mean @ 100 μM (%) [1] | EC50 [2] [µM] | 5HT2A Agonist mean @ 100 nM (%) [3] | 5HT2A Agonist mean @ 10 μM (%) [3] | 5HT2A Agonist mean @ 100 μM (%) [3] | fold induction at 10 µM [4, 5] | fold induction at 10 µM [4, 6] |
| --- | --- | --- | --- | --- | --- | --- | --- | --- | --- |
| COc1ccc2c(ccn2CCN2CCCC2)c1 [Example 44, 5-methoxy-1-(2-(pyrrolidin-1-yl)ethyl)-1H-indole] | C (inhibits 5HT response by <75%) | A (inhibits 5HT response by >100%) | A (inhibits 5HT response by >100%) | > 10 | B (does not activate 5HT2A sensor assay in agonist mode) | B (does not activate 5HT2A sensor assay in agonist mode) | B (does not activate 5HT2A sensor assay in agonist mode) | 1.5 to 3 | > 3 |
| COc1ccc2c(ccn2CCN2CCCCC2)c1 [Example 45, 5-methoxy-1-(2-(piperidin-1-yl)ethyl)-1H-indole] | A (inhibits 5HT response by >100%) | B (inhibits 5HT response by 75% to 100%) | A (inhibits 5HT response by >100%) | > 10 | B (does not activate 5HT2A sensor assay in agonist mode) | B (does not activate 5HT2A sensor assay in agonist mode) | B (does not activate 5HT2A sensor assay in agonist mode) | 1.5 to 3 | 1.5 to 3 |
| COc1ccc2c(ccn2CCN2CCOCC2)c1 [Example 46, 4-(2-(5-methoxy-1H-indol-1-yl)ethyl)morpholine] | A (inhibits 5HT response by >100%) | A (inhibits 5HT response by >100%) | A (inhibits 5HT response by >100%) | > 10 | B (does not activate 5HT2A sensor assay in agonist mode) | B (does not activate 5HT2A sensor assay in agonist mode) | B (does not activate 5HT2A sensor assay in agonist mode) | 1.5 to 3 | 1.5 to 3 |
